Assay results reported in patent publication US20250017914A1, “6-AZA-QUINOLINE DERIVATIVES AND RELATED USES” (Black Diamond Therapeutics, Inc., priority 2021, published 2025).

Molecular target: T1, BaF3 BRAF-KIAA1549 fusion cells (Homo sapiens, UniProt P15056)
T1 construct: The BRAF-KIAA1549 fusion mutant was subcloned into pMXs-IRES-Blasticidin (RTV-016, Cell Biolabs, San Diego, CA); No tag given; Q9HCM3 (UPF0606 protein KIAA1549)
Assay: BaF3 BRAF-KIAA1549 fusion cell proliferation assay (CellTiterGlo, 96 hours)
Type: cell-based
Method: Retroviral Production: The BRAF-KIAA1549 fusion mutant was subcloned into pMXs-IRES-Blasticidin (RTV-016, Cell Biolabs, San Diego, CA). Retrovirus was produced by transfection of HEK 293T cells with the retroviral BRAF mutant expression vector pMXs-IRES-Blasticidin (RTV-016, Cell Biolabs), pCMV-Gag-Pol vector and pCMV-VSV-G-Envelope vector. Briefly, HEK 293T cells were plated in Poly-D-lysine coated 6-well plate (2.5×10^5 cells per well) and incubated overnight. The next day, retroviral plasmids (1 μg of BRAF-KIAA fusion mutant, 0.32 μg of pCMV-Gag-Pol and 0.165 μg pCMV-VSV-G) were mixed in 300 μL of Optimem (31985, Life Technologies). The mixture was incubated at room temperature for 5 minutes and then added to Optimem containing transfection reagent Lipofectamine (11668, Invitrogen) and incubated for 20 minutes. The mixture was then added dropwise to HEK 293T cells. The next day the medium was replaced with fresh culture medium and retrovirus was harvested at 24 hours.
Generation of BRAF-KIAA1549 fusion stable cell line: BaF3 cells were plated in V-bottom 96 well plate (COSTAR #3894) in 80 μL of RPMI/10% FBS and 0.01 ng/mL mouse IL-3, supplemented with 8 μg/mL polybrene (4×10^4 cells/well). Cells were transduced with 20 μL of BRAF-KIAA1549 fusion viral supernatant by centrifuging for 30 minutes at 1000 rpm. Cells were placed in a 37° C. incubator overnight. Next day 100 μL of RPMI/10% FBS and 0.01 ng/mL mouse IL-3 was added. After 24 hours, 100 μL of cells were transferred to a 24 well plate containing 900 μL of RPM/10% FBS and 15 μg/mL Blasticidin. Contents of the 24 well plate were sampled for cell viability via CellTiterGlo (Promega) over a 2-week period.
Assay for cell proliferation: BaF3 BRAF-KIAA1549 fusion cells were resuspended at 1.5×10^5 c/mL in RPMI containing 10% Heat Inactivated FBS, 1% L-glutamine and dispensed in duplicate (7×10^4 c/well) into 384 well plates. To determine the effect of compound on cell proliferation, BaF3 BRAF-KIAA1549 fusion cells were incubated for 96 hours in the presence of vehicle control (DMSO) or compound at varying concentrations. Inhibition of cell growth was determined by luminescent quantification (Envision by Perkin Elmer) of intracellular ATP content using CellTiterGlo (Promega), according to the protocol provided by the manufacturer. To determine the IC50 values, the vehicle-treated cells were normalized as viable cells and analyzed using the CDD Vault, Collaborative Drug Discovery, Burlingame, CA (the Levenberg-Marquardt algorithm; Levenberg, K., […]; Marquardt, D., 1963).
Tables A1 and A2 assign each compound a code for potency in the BaF3 BRAF-KIAA1549 fusion cell proliferation assay: A, B, C, or D. According to the code, A represents an IC50 value <20 nM; B represents an IC50 value ≥20 nM and <100 nM; C represents an IC50 value ≥100 nM and <500 nM; and D represents an IC50 value ≥500 nM.

T1 sequence (P15056 whole entry, change not shown, the tested form may be a part): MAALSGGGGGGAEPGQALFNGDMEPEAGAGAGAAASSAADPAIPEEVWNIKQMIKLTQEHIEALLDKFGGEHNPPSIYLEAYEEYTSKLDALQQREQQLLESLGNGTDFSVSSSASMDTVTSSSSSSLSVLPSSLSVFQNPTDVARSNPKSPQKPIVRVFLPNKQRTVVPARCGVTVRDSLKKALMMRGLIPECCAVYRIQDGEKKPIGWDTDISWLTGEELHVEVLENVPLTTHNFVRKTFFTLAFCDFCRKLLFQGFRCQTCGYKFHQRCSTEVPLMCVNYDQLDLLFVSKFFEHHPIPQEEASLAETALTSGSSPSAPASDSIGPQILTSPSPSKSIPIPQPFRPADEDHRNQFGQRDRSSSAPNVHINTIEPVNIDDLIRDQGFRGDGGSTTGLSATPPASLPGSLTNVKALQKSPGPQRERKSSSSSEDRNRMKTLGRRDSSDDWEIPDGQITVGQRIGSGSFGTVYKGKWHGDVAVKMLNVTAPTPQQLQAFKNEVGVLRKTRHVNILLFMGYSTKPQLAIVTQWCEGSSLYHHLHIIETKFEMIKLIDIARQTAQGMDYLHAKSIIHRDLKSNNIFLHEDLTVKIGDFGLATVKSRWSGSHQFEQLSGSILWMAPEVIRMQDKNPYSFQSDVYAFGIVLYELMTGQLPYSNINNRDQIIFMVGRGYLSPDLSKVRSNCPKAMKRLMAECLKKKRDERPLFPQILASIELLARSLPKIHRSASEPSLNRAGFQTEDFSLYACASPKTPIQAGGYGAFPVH

GI50 (Table A2) | GI50 (Table A1) | Structure (SMILES)
20 to 100 nM | – | CNc1cc2ncc(-c3cc(NC(=O)c4cccc5c4NC(=O)C5(C)C)ccc3C)cc2cn1 [Compound 215, 3,3-dimethyl-N-(4-methyl-3-(7-(methylamino)-1,6-naphthyridin-3-yl)phenyl)-2-oxoindoline-7-carboxamide]
20 to 100 nM | – | CNc1cc2ncc(-c3cc(NC(=O)c4cc(C(O)CC(F)(F)F)ccn4)cnc3C)cc2cn1 (centres unmarked) [Compound 242, N-(6-methyl-5-(7-(methylamino)-1,6-naphthyridin-3-yl)pyridin-3-yl)-4-(3,3,3-trifluoro-1-hydroxypropyl)picolinamide]
– | 20 to 100 nM | CNc1cc2ncc(-c3cc(NC(=O)c4cc(C5(C#N)CCC5)ccn4)ccc3C)cc2cn1 [Compound 15, 4-(1-Cyanocyclobutyl)-N-(4-methyl-3-(7-(methylamino)-1,6-naphthyridin-3-yl)phenyl)picolinamide]
20 to 100 nM | – | CNc1cc2ncc(-c3cc(NC(=O)c4nn(C)c5c4CCCC5)cnc3C)cc2cn1 [Compound 233, 1-methyl-N-(6-methyl-5-(7-(methylamino)-1,6-naphthyridin-3-yl)pyridin-3-yl)-4,5,6,7-tetrahydro-1H-indazole-3-carboxamide]
– | < 20 nM | CNc1cc2ncc(-c3cc(NC(=O)c4cc(C(F)(F)F)c(F)cn4)cnc3C)cc2cn1 [Compound 60, 5-Fluoro-N-(6-methyl-5-(7-(methylamino)-1,6-naphthyridin-3-yl)pyridin-3-yl)-4-(trifluoromethyl)picolinamide]
– | 20 to 100 nM | CNc1cc2ncc(-c3cc(NC(=O)c4cncc(C(F)(F)F)c4)cnc3C)cc2cn1 [Compound 21, N-(6-Methyl-5-(7-(methylamino)-1,6-naphthyridin-3-yl)pyridin-3-yl)-5-(trifluoromethyl)nicotinamide]
– | 20 to 100 nM | CNc1cc2ncc(-c3cc(NC(=O)c4cc(C(C)(C)C#N)ccn4)c(F)cc3C)cc2cn1 [Compound 42, 4-(2-Cyanopropan-2-yl)-N-(2-fluoro-4-methyl-5-(7-(methylamino)-1,6-naphthyridin-3-yl)phenyl)picolinamide]
20 to 100 nM | – | CNc1ncc2cc(-c3cc(NC(=O)c4ccnc(C5(F)CC5)c4)ccc3C)cnc2c1C#N [Compound 271, N-[3-[8-cyano-7-(methylamino)-1,6-naphthyridin-3-yl]-4-methyl-phenyl]-2-(1-fluorocyclopropyl)pyridine-4-carboxamide]
≥ 500 nM | – | CNc1cc2ncc(-c3cc(NC(=O)c4cccc5c4OC(C)C5)cnc3C)cc2cn1 (centres unmarked) [Compound 239, 2-methyl-N-(6-methyl-5-(7-(methylamino)-1,6-naphthyridin-3-yl)pyridin-3-yl)-2,3-dihydrobenzofuran-7-carboxamide]
– | 20 to 100 nM | CNc1cc2ncc(-c3cc(NC(=O)c4cc(C(C)(C)C#N)ccn4)cnc3C)cc2cn1 [Compound 30, 4-(2-Cyanopropan-2-yl)-N-(6-methyl-5-(7-(methylamino)-1,6-naphthyridin-3-yl)pyridin-3-yl)picolinamide]
< 20 nM | – | CNc1cc2ncc(-c3cc(NC(=O)N4CC[C@@H](CC(F)(F)F)C4)ccc3C)cc2cn1 (single isomer, unassigned) [Compound 267]
– | 20 to 100 nM | Cc1ncc(NC(=O)c2cc(C(C)(C)C#N)ccn2)cc1-c1cnc2cc(N)ncc2c1 [Compound 176, N-(5-(7-amino-1,6-naphthyridin-3-yl)-6-methylpyridin-3-yl)-4-(2-cyanopropan-2-yl)picolinamide]
20 to 100 nM | – | CNc1cc2ncc(-c3cc(NC(=O)c4noc5c4C[C@@H](C)CC5)ccc3C)cc2cn1 (single isomer, unassigned) [Compound 236]
– | < 20 nM | CNc1cc2ncc(-c3cc(NC(=O)c4cc(C(C)(C)C#N)ccn4)ccc3C)cc2cn1 [Compound 14, 4-(2-Cyanopropan-2-yl)-N-(4-methyl-3-(7-(methylamino)-1,6-naphthyridin-3-yl)phenyl)picolinamide]
– | 20 to 100 nM | CNc1cc2ncc(-c3cc(NC(=O)c4cc(C(C)(C)F)ccn4)cnc3C)cc2cn1 [Compound 65, 4-(2-Fluoropropan-2-yl)-N-(6-methyl-5-(7-(methylamino)-1,6-naphthyridin-3-yl)pyridin-3-yl)picolinamide]
– | < 20 nM | CNc1cc2ncc(-c3cc(NC(=O)c4ccnc(C5CC(F)(F)C5)c4)ccc3C)cc2cn1 [Compound 17, 2-(3,3-Difluorocyclobutyl)-N-(4-methyl-3-(7-(methylamino)-1,6-naphthyridin-3-yl)phenyl)isonicotinamide]
– | 100 to 500 nM | CNc1cc2ncc(-c3cc(NC(=O)c4cc(C(C)(C)C#N)ccn4)c(Cl)cc3C)cc2cn1 [Compound 50, N-(2-Chloro-4-methyl-5-(7-(methylamino)-1,6-naphthyridin-3-yl)phenyl)-4-(2-cyanopropan-2-yl)picolinamide]
100 to 500 nM | – | CNc1cc2ncc(-c3cc(NC(=O)N(C)c4cc(C(F)F)ccn4)ccc3C)cc2cn1 [Compound 189, 1-(4-(difluoromethyl)pyridin-2-yl)-1-methyl-3-(4-methyl-3-(7-(methylamino)-1,6-naphthyridin-3-yl)phenyl)urea]
≥ 500 nM | – | CNc1cc2ncc(-c3cc(NC(=O)c4noc5c4COCC5)cnc3C)cc2cn1 [Compound 246, N-(6-methyl-5-(7-(methylamino)-1,6-naphthyridin-3-yl)pyridin-3-yl)-6,7-dihydro-4H-pyrano[3,4-d]isoxazole-3-carboxamide]
– | < 20 nM | CNc1cc2ncc(-c3cc(NC(=O)c4ccnc(C(C)(F)F)c4)cnc3C)cc2cn1 [Compound 29, 2-(1,1-Difluoroethyl)-N-(6-methyl-5-(7-(methylamino)-1,6-naphthyridin-3-yl)pyridin-3-yl)isonicotinamide]
– | 20 to 100 nM | CNc1cc2ncc(-c3cc(NC(=O)c4ccnc(C(C)(C)C)c4)cnc3C)cc2cn1 [Compound 58, 2-(tert-Butyl)-N-(6-methyl-5-(7-(methylamino)-1,6-naphthyridin-3-yl)pyridin-3-yl)isonicotinamide]
– | 20 to 100 nM | CNc1cc2ncc(-c3cc(NC(=O)c4cc(C(C)(C)C#N)ccn4)ccc3F)cc2cn1 [Compound 40, 4-(2-cyanopropan-2-yl)-N-(4-fluoro-3-(7-(methylamino)-1,6-naphthyridin-3-yl)phenyl)picolinamide]
20 to 100 nM | – | CNc1cc2ncc(-c3cc(NC(=O)c4cc([C@@H](O)C(C)(F)F)ccn4)cnc3C)cc2cn1 (single isomer, unassigned) [Compound 248]
– | < 20 nM | CNc1cc2ncc(-c3cc(NC(=O)c4cc(C5(C#N)CC5)ccn4)ccc3C)cc2cn1 [Compound 16, 4-(1-Cyanocyclopropyl)-N-(4-methyl-3-(7-(methylamino)-1,6-naphthyridin-3-yl)phenyl)picolinamide]
20 to 100 nM | – | CNc1cc2ncc(-c3cc(NC(=O)c4cccc(C(C)(C)C#N)c4)c(F)cc3C)cc2cn1 [Compound 223, 3-(2-cyanopropan-2-yl)-N-(2-fluoro-4-methyl-5-(7-(methylamino)-1,6-naphthyridin-3-yl)phenyl)benzamide]
– | 20 to 100 nM | CNc1cc2ncc(-c3cc(NC(=O)[C@H](C)n4cnc(C(F)(F)F)n4)ccc3C)cc2cn1 (single isomer, unassigned) [Compound 68]
– | < 20 nM | CNc1cc2ncc(-c3cc(NC(=O)c4ccnc(C5(F)CC5)c4)cnc3C)cc2cn1 [Compound 33, 2-(1-Fluorocyclopropyl)-N-(6-methyl-5-(7-(methylamino)-1,6-naphthyridin-3-yl)pyridin-3-yl)isonicotinamide]
– | < 20 nM | CNc1cc2ncc(-c3cc(NC(=O)c4cc(C(F)(F)F)ccn4)cnc3C)cc2cn1 [Compound 20, N-(6-Methyl-5-(7-(methylamino)-1,6-naphthyridin-3-yl)pyridin-3-yl)-4-(trifluoromethyl)picolinamide]
– | 20 to 100 nM | CCNc1cc2ncc(-c3cc(NC(=O)c4ccnc(C5(F)CC5)c4)ccc3C)cc2cn1 [Compound 153, N-(3-(7-(ethylamino)-1,6-naphthyridin-3-yl)-4-methylphenyl)-2-(1-fluorocyclopropyl)isonicotinamide]
